{"source": "patent US8232401B2", "about": "(Japan Tobacco Inc., priority 2002, dated 2012)", "target": "T1, HIV integrase (Human immunodeficiency virus type 1 group M subtype B, UniProt P12497, F1332H)", "T1 construct": "HIV integrase full length gene; made in house; host or cells: Escherichia coli BL21(DE3)", "assay": "Determination of enzyme (HIV integrase) inhibitory activity (strand transfer, microtiter plate, absorbance at 450 nm)", "format": "biochemical, HIV (Human Immunodeficiency Virus (type 1))", "details": "recombinant HIV integrase (F185H) expressed in E. coli; donor DNA on streptavidin plate, digoxigenin target DNA; 37° C."}
{"smiles": "O=C(O)c1cn(CCO)c2ccc(Cc3cccc(Cl)c3)cc2c1=O", "note": "[Example 1-31]", "values": [{"measurement": "IC50", "value": 170, "unit": "nM"}]}
{"smiles": "CC(C)Oc1cc2c(cc1Cc1cccc(Cl)c1F)c(=O)c(C(=O)O)cn2CCO", "note": "[Example 3-53, 6-(3-Chloro-2-fluorobenzyl)-1-(2-hydroxyethyl)-7-isopropyloxy-4-oxo-1,4-dihydroquinoline-3-carboxylic acid]", "values": [{"measurement": "IC50", "value": 7.9, "unit": "nM"}]}
{"smiles": "CS(=O)(=O)Nn1cc(C(=O)O)c(=O)c2cc(Cc3cccc(Cl)c3Cl)ccc21", "note": "[Example 2-4, 6-(2,3-Dichlorobenzyl)-1-methanesulfonylamino-4-oxo-1,4-dihydroquinoline-3-carboxylic acid]", "values": [{"measurement": "IC50", "value": 18, "unit": "nM"}]}
{"smiles": "CNS(=O)(=O)Cn1cc(C(=O)O)c(=O)c2cc(Cc3c(F)cccc3Cl)ccc21", "note": "[Example 1-76, 6-(2-Chloro-6-fluorobenzyl)-1-methylsulfamoylmethyl-4-oxo-1,4-dihydroquinoline-3-carboxylic acid]", "values": [{"measurement": "IC50", "value": 28, "unit": "nM"}]}
{"smiles": "CCOc1cc2c(cc1Cc1cccc(Cl)c1F)c(=O)c(C(=O)O)cn2[C@@H](C)CO", "note": "[Example 3-61, (S)-6-(3-Chloro-2-fluorobenzyl)-7-ethoxy-1-(2-hydroxy-1-methylethyl)-4-oxo-1,4-dihydroquinoline-3-carboxylic acid]", "values": [{"measurement": "IC50", "value": 7.6, "unit": "nM"}]}
{"smiles": "O=C(O)c1cn(CCO)c2cc(OCC3CCCCC3)c(Cc3cccc(Cl)c3F)cc2c1=O", "note": "[Example 3-63, 6-(3-Chloro-2-fluorobenzyl)-7-cyclohexylmethoxy-1-(2-hydroxyethyl)-4-oxo-1,4-dihydroquinoline-3-carboxylic acid]", "values": [{"measurement": "IC50", "value": 17, "unit": "nM"}]}
{"smiles": "O=C(O)c1cn(CCO)c2ccc(Cc3cccc(Cl)c3Cl)c(F)c2c1=O", "note": "[Example 4-12, 6-(2,3-Dichlorobenzyl)-5-fluoro-1-(2-hydroxyethyl)-4-oxo-1,4-dihydroquinoline-3-carboxylic acid]", "values": [{"measurement": "IC50", "value": 65, "unit": "nM"}]}
{"smiles": "O=C(O)c1cn(CCO)c2ccc(Cc3ccc(F)c(Cl)c3F)cc2c1=O", "note": "[Example 3-17, 6-(3-Chloro-2,4-difluorobenzyl)-1-(2-hydroxyethyl)-4-oxo-1,4-dihydroquinoline-3-carboxylic acid]", "values": [{"measurement": "IC50", "value": 13, "unit": "nM"}]}
{"smiles": "NS(=O)(=O)Cn1cc(C(=O)O)c(=O)c2cc(Cc3cccc(Cl)c3Cl)ccc21", "note": "[Example 1-9, 6-(2,3-Dichlorobenzyl)-4-oxo-1-sulfamoylmethyl-1,4-dihydroquinoline-3-carboxylic acid]", "values": [{"measurement": "IC50", "value": 17, "unit": "nM"}]}
{"smiles": "CCCOc1cc(Cc2cccc(Cl)c2F)cc2c(=O)c(C(=O)O)cn(CCO)c12", "note": "[Example 3-58, 6-(3-Chloro-2-fluorobenzyl)-1-(2-hydroxyethyl)-4-oxo-8-propyloxy-1,4-dihydroquinoline-3-carboxylic acid]", "values": [{"measurement": "IC50", "value": 8, "unit": "nM"}]}
{"smiles": "O=C(O)c1cn(CCCc2ccccc2)c2ccc(Cc3cccc(Cl)c3Cl)cc2c1=O", "note": "[Example 1-17, 6-(2,3-Dichlorobenzyl)-1-(3-phenylpropyl)-4-oxo-1,4-dihydroquinoline-3-carboxylic acid]", "values": [{"measurement": "IC50", "value": 84, "unit": "nM"}]}
{"smiles": "O=C(O)c1cn(CCO)c2cc(Cl)c(Cc3cccc(Cl)c3Cl)cc2c1=O", "note": "[Example 3-21, 7-Chloro-6-(2,3-dichlorobenzyl)-1-(2-hydroxyethyl)-4-oxo-1,4-dihydroquinoline-3-carboxylic acid]", "values": [{"measurement": "IC50", "value": 30, "unit": "nM"}]}
{"smiles": "O=C(O)CCn1cc(C(=O)O)c(=O)c2cc(Cc3cccc(Cl)c3Cl)ccc21", "note": "[Example 1-10, 1-(2-Carboxyethyl)-6-(2,3-dichlorobenzyl)-4-oxo-1,4-dihydroquinoline-3-carboxylic acid]", "values": [{"measurement": "IC50", "value": 72, "unit": "nM"}]}
{"smiles": "CCCCn1cc(C(=O)O)c(=O)c2cc(Cc3cccc(Cl)c3Cl)ccc21", "note": "[Example 1-39, 1-Butyl-6-(2,3-Dichlorobenzyl)-4-oxo-1,4-dihydroquinoline-3-carboxylic acid]", "values": [{"measurement": "IC50", "value": 180, "unit": "nM"}]}
{"smiles": "O=C(O)c1cn([C@H](CO)CC2CCCCC2)c2ccc(Cc3cccc(Cl)c3F)cc2c1=O", "note": "[Example 4-22, (S)-6-(3-Chloro-2-fluorobenzyl)-1-[2-cyclohexyl-1-(hydroxymethyl)ethyl]-4-oxo-1,4-dihydroquinoline-3-carboxylic acid]", "values": [{"measurement": "IC50", "value": 2.9, "unit": "nM"}]}
{"smiles": "CC[C@H](C)[C@@H](CO)n1cc(C(=O)O)c(=O)c2cc(Cc3cccc(Cl)c3F)c(OC(C)C)cc21", "note": "[Example 4-39, 6-(3-Chloro-2-fluorobenzyl)-1-((1S,2S)-1-hydroxymethyl-2-methylbutyl)-7-isopropyloxy-4-oxo-1,4-dihydroquinoline-3-carboxylic acid]", "values": [{"measurement": "IC50", "value": 4.1, "unit": "nM"}]}
{"smiles": "O=C(O)c1cn(CCF)c2ccc(Cc3cccc(Cl)c3Cl)cc2c1=O", "note": "[Example 1-44, 6-(2,3-Dichlorobenzyl)-1-(2-fluoroethyl)-4-oxo-1,4-dihydroquinoline-3-carboxylic acid]", "values": [{"measurement": "IC50", "value": 51, "unit": "nM"}]}
{"smiles": "CCCNc1cc(Cc2cccc(Cl)c2F)cc2c(=O)c(C(=O)O)cn(CCO)c12", "note": "[Example 3-54, 6-(3-Chloro-2-fluorobenzyl)-1-(2-hydroxyethyl)-4-oxo-8-propylamino-1,4-dihydroquinoline-3-carboxylic acid]", "values": [{"measurement": "IC50", "value": 6.4, "unit": "nM"}]}
{"smiles": "O=C(O)c1cn(CCO)c2ccc(Cc3ccccc3Br)cc2c1=O", "note": "[Example 1-80, 6-(2-Bromobenzyl)-1-(2-hydroxyethyl)-4-oxo-1,4-dihydroquinoline-3-carboxylic acid]", "values": [{"measurement": "IC50", "value": 350, "unit": "nM"}]}
{"smiles": "CSc1ccc(Cl)c(Cc2ccc3c(c2)c(=O)c(C(=O)O)cn3CCO)c1", "note": "[Example 1-92, 6-(2-Chloro-5-methylsulfanylbenzyl)-1-(2-hydroxyethyl)-4-oxo-1,4-dihydroquinoline-3-carboxylic acid]", "values": [{"measurement": "IC50", "value": 280, "unit": "nM"}]}
{"smiles": "CCNn1cc(C(=O)O)c(=O)c2cc(Cc3cccc(Cl)c3Cl)ccc21", "note": "[Example 2-8, 6-(2,3-Dichlorobenzyl)-1-ethylamino-4-oxo-1,4-dihydroquinoline-3-carboxylic acid]", "values": [{"measurement": "IC50", "value": 85, "unit": "nM"}]}
{"smiles": "O=C(O)c1cn(CCO)c2cc(OCCO)c(Cc3cccc(Cl)c3F)cc2c1=O", "note": "[Example 3-76, 6-(3-Chloro-2-fluorobenzyl)-1-(2-hydroxyethyl)-7-(2-hydroxyethyloxy)-4-oxo-1,4-dihydroquinoline-3-carboxylic acid]", "values": [{"measurement": "IC50", "value": 8.5, "unit": "nM"}]}
{"smiles": "CC[C@@H](CO)n1cc(C(=O)O)c(=O)c2cc(Cc3cccc(Cl)c3F)c(SC)cc21", "note": "[Example 4-29, (S)-6-(3-Chloro-2-fluorobenzyl)-1-[1-(hydroxymethyl)propyl]-7-methylsulfanyl-4-oxo-1,4-dihydroquinoline-3-carboxylic acid]", "values": [{"measurement": "IC50", "value": 4.5, "unit": "nM"}]}
{"smiles": "CCOc1cc2c(cc1Cc1cccc(Cl)c1F)c(=O)c(C(=O)O)cn2[C@H](CO)[C@@H](C)CC", "note": "[Example 4-28, 6-(3-Chloro-2-fluorobenzyl)-7-ethoxy-1-((1S,2S)-1-hydroxymethyl-2-methylbutyl)-4-oxo-1,4-dihydroquinoline-3-carboxylic acid]", "values": [{"measurement": "IC50", "value": 2.7, "unit": "nM"}]}
{"smiles": "NC(=O)CCn1cc(C(=O)O)c(=O)c2cc(Cc3cccc(Cl)c3Cl)ccc21", "note": "[Example 1-13, 1-(2-Carbamoylethyl)-6-(2,3-dichlorobenzyl)-4-oxo-1,4-dihydroquinoline-3-carboxylic acid]", "values": [{"measurement": "IC50", "value": 140, "unit": "nM"}]}
{"smiles": "O=C(O)c1cn(CCO)c2ccc(Cc3cccc([N+](=O)[O-])c3)cc2c1=O", "note": "[Example 1-67]", "values": [{"measurement": "IC50", "value": 790, "unit": "nM"}]}
{"smiles": "Cc1ccc(Cl)c(Cc2ccc3c(c2)c(=O)c(C(=O)O)cn3CCO)c1", "note": "[Example 1-97, 6-(2-Chloro-5-methylbenzyl)-1-(2-hydroxyethyl)-4-oxo-1,4-dihydroquinoline-3-carboxylic acid]", "values": [{"measurement": "IC50", "value": 130, "unit": "nM"}]}
{"smiles": "O=C(O)c1cn(CCO)c2ccc(Cc3cccc(Br)c3)cc2c1=O", "note": "[Example 1-96]", "values": [{"measurement": "IC50", "value": 230, "unit": "nM"}]}
